Test results published in ChEMBL document CHEMBL1123168 (J Med Chem, 1986).

How the values were obtained:
[1] = system: Canis familiaris; assay: Cardiotonic activity in increasing contractility in phenobarbital-anesthetized dogs after intravenous administration; format: functional; conditions: Canis lupus familiaris
[2] = molecular target: Phosphodiesterase 3 (Homo sapiens, UniProt Q14432+Q13370); assay: Cardiotonic effect by inhibition of cAMP phosphodiesterase (PDE III); format: protein assay, Canis lupus familiaris
[3] = system: Canis familiaris; assay: Cardiotonic activity by decreasing mean arterial blood pressure(MAP) in phenobarbital-anesthetized dogs after intravenous administration; format: functional, Canis lupus familiaris, Artery
[4] = system: Canis familiaris; assay: Cardiotonic activity by increasing heart rate (HR) in phenobarbital-anesthetized dogs after intravenous administration; format: functional, Canis lupus familiaris

SMILES	IC50 [2]	ED50 [1]	MAP [3]	Heart rate [4]
Nc1cc(-c2ccncc2)c[nH]c1=O [INAMRINONE]		1.89 mg/kg	16 mmHg	13 beats min-1
Cc1[nH]c(=O)c(C#N)cc1-c1ccncc1 [MILRINONE]		0.037 mg/kg	10 mmHg	14 beats min-1

The next lines start with results.

IC50 [2]	SMILES	ED50 [1]	MAP [3]	Heart rate [4]
38 µM	CCCc1nc(O)c(C#N)cc1-c1ccncc1	0.748 mg/kg	20 mmHg	25 beats min-1
31 µM	Cc1nc(O)c(N)cc1-c1ccncc1	0.055 mg/kg	10 mmHg	9 beats min-1
12 µM	CCc1nc(O)c(C#N)cc1-c1ccncc1	0.12 mg/kg	12 mmHg	19 beats min-1
